Assay results from patent US12570614B2, “Phenyl amino pyrimidine compounds and uses thereof” (GlaxoSmithKline LLC, priority 2007, dated 2026).

Tests used:
[1] = test system: STAT5 phosphorylation in HEL 92.1.7 cells; assay: Western blot of STAT5 phosphorylation in HEL cells; format: cell-based, human; conditions: 2 hours
Procedure: The Western blots were treated with a STAT5 phosphospecific antibody and exposed to film for 5 minutes (top blot) and 1 minute (middle blot).
The human erythroleukemic cell line HEL 92.1.7 was routinely maintained in RPMI 1640 media containing 10% FCS. The day before the experiment, cells were washed twice in PBS, resuspended in RPMI 1640 media containing 1% FCS, and cultured overnight.
Cells were then placed on ice and washed twice in ice-cold PBS. Washed cell pellets were snap-frozen in liquid nitrogen and stored at −80° C.
Cell pellets were lysed on ice in RIPA buffer, and lysates clarified by centrifugation (20,000×g, 4° C., 5 min). The protein concentration of lysates was determined by the Bradford method, and equal amounts of protein (60 μg/lane) were separated by SDS-PAGE. Protein was then transferred to PVDF, and Western blotting performed using an antibody that specifically recognizes STAT5 phosphorylated at tyrosine 694. The membrane was then stripped and reprobed with an antibody that recognizes total STAT5 protein.

[2] = test system: STAT5 phosphorylation in HEL 92.1.7 cells; assay: Intracellular flow cytometric (FACS) analysis of STAT5 phosphorylation in HEL cells; format: cell-based, human; conditions: HEL 92.1.7 cells, 0.25, 0.5, 1, or 2 μM, 2 hours
Procedure: After treatment the cells were stained with mouse monoclonal anti-STAT5 (Y694) PE antibody and analyzed using fluorescence activated cell sorting (FACS). The histograms are shaded according to the fold change in median fluorescence relative to the isotype control (Isocont lane in clear outline).
The human erythroleukemic cell line, HEL 92.1.7 (ATCC, TIB-180), was grown in RPMI 1640 containing 10% PCS supplemented with 1 mM sodium pyruvate. For phosphor-STAT 5 determination, HEL cells were grown in RPMI 1640+1% PCS for 18 hours at 37° C. and 2×10^5 cells per assay point were exposed to DMSO/test compounds for 2 hours at 37° C. The cells were centrifuged at 1300 rpm for 3 minutes and fixed in paraformaldehyde (2% final concentration) for 15 minutes at 37° C. After centrifugation, cells were permeabilized in 90% methanol at 4° C. for 30 minutes. […]
Staining proceeded for 1 hour at room temperature in the dark, followed by 3 washes in PBS-2% FCS. […] The median fluorescence intensity (MFI) was used to determine fold change upon treatment of cells with specific inhibitor compounds, calculated as the MFIstimulated/MFIunstimulated ratio for the phosphospecific antibody fluorescence channel (FL2).

CTLL2 = assay: Cellular screening, CTLL2 cells (Alamar Blue); format: cell-based; conditions: Mus musculus, CTLL-2; 48-72 hr incubation; read-out: CTLL2_IC50_μM
BaF3 wild-type cells = assay: Cellular screening, BaF3 wild-type cells (Alamar Blue); format: cell-based; conditions: Mus musculus, 48-72 hr incubation, read-out: BAF3wt_IC50_μM
Procedure, shortened: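 Parental BaF3 cells in DMEM with 10% FCS and 10% WEHI 3B conditioned medium were seeded at 50,000–200,000 cells/mL (1.1× final). Compounds were added as 10× solutions, with dilution plates prepared at 20 μM.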

- IC50 (BaF3 wild-type cells): < 5 µM
SMILES: N#CCNC(=O)c1ccc(-c2ccnc(Nc3ccc(N4CCOCC4)cc3)n2)cc1 [Compound 3, N-(cyanomethyl)-4-(2-(4-morpholinophenyl-amino)pyrimidin-4-yl)benzamide]
- effect on STAT5 phosphorylation (Western blot) [1]: decrease in STAT5 phosphorylation
- effect on STAT5 phosphorylation (FACS) [2]: dose-dependent effect
- IC50 (CTLL2): < 5 µM
